Patent publication US20190321311A1, “Cancer Treatment by Simultaneous Targeting Energy Metabolism and Intracellular pH” (Deutsches Krebsforschungszentrum, priority 2016, published 2019)
Read-outs that look alike come from different tables or passages of the source.

Key:
[1] = tested on: Mouse melanoma B16F10; assay: Cell viability assay, CellTiter-Glo, B16F10
Experimental: (§1) Indicated cells were treated with indicated drug combinations for 48 h or as indicated in conditions imitating tumor environment—RPMI supplemented with 10% FCS and 20 mM PIPES, adjusted to pH 6.5. After treatment, cells were analyzed for cell viability: • using CellTiter-Blue® Cell Viability Assay, Promega according to manufacturer recommendations. For each treatment, the fraction (%) of viable cells are indicated. Untreated viable cells were set to 100%. Average data of 2 independent experiments are presented. Each independent experiment contained 4 biological replicates for each condition. • using CellTiter-Glo® Cell Viability Assay, Promega according manufacturer recommendations. For each treatment the fraction (%) of viable cells are indicated. Untreated viable cells were set to 100%. Each measurement represents the mean value of 4 biological replicates for each condition.

[2] = tested on: Lung cancer H1975; assay: Cell viability assay, CellTiter-Glo, H1975; details: Homo sapiens, NCI-H1975, 72 h, pH 6.5, read-out: fraction (%) of viable cells
Experimental: as §1

[3] = tested on: Wnt signaling pathway; assay type: cell-based; details: cancer cell lines (FIG. 2A), 6 mM Metformin
Experimental: (§2) For gene expression measurement, cells were seeded in 6 well plates. On the following day, cells were treated with 6 mM Metformin for 48 h in normal RPMI medium supplemented with 10% FCS. Cells were harvested using Trypsin/EDTA and divided in up to 3 aliquots. A first aliquot was used for RNA preparation using RNeasy kit (Qiagen) and subsequent quantitative reverse transcription-PCR (qRT-PCR) analysis with LC480 LightCycler (Roche). A second aliquot was extracted with Saponin buffer (0.05% Saponin, 1 mM MgCl2, 1×TBS, 2 mM ME, 1× protein inhibitor cocktail (Roche) for obtaining cytoplasmic protein fraction. This fraction was used for b-catenin protein detection. Third aliquot was extracted with Triton lysis buffer ((TBS (50 mM Tris pH7.4, 150 mM NaCl, 2.7 mM KCl), 1% Triton X-100, 2 mM β-mercaptoethanol (ME), 1 mM MgCl2, 10 mM sodium pyrophosphate, 10 mM NaF, 1× proteinase inhibitor cocktail). This aliquot was used for Sox4 and a-tubulin (control) protein detection. For second and third aliquots 20-35 μl of buffer was used for 500 000 cells. After centrifugation extracts were used for Western blot analysis.
Experiment was done as in example 3. […] CHOP protein was detected in Triton lysis buffer extract.

[4] = tested on: H1975 cells; assay type: cell-based; details: H1975 cells expressing EC-GFP, Metformin for 48 hours
Excerpt: FIG. 1: Treatment with Metformin and combined preparations causes an intracellular pH drop in cancer cell lines. Intracellular pH measurements were done in cells expressing a pH sensitive variant of GFP (EC-GFP). Live cells were imaged at 405 nm and 488 nm excitation wavelengths to record control and pH-sensitive emissions, correspondingly. Eight biological replicates were done for each treatment. Error bars correspond to mean values±s.d.; P≤0.0001. a. […] Confocal microscopy of H1975 and HEK293 live cells expressing EC-GFP treated with Metformin for 48 hours. To rule out a possibility that GFP signal fading is due to degradation, after exposure to the drug, cells were transferred to media with pH 8.8 supplemented with 5 μM Nigericin for 30 minutes before re-imaging (Metformin pH 8.8 rescue). b, c. […] Intracellular pH measurements were done after cells were treated alone or in combination with Rotenone or/and Nigericin, and with Papaverine or/and Salinomycin for 27 or 48 hours in pH 6.5 buffer, as indicated.
Intracellular pH in indicated cancer cell lines and non-cancer 293T cells was measured using cell lines stabile expressing pH sensitive EC-GFP at two different excitation wave length to obtain 488 nm/405 nm ratios. […] 488/405 ratios were quantified using ImageJ (NIH) software.

[5] = tested on: Sox4; assay type: cell-based; details: Metformin 72 hours
Experimental: Cells were densely seeded on 6-well plates. Starting on the following day, cells were treated with indicated drug combinations for 48 h in conditions imitating tumor environment: RPMI supplemented with 10% FCS and 20 mM PIPES, adjusted to pH 6.5. For non-cancer HEK293Tcells, non modified RPMI medium supplemented with 10% FCS was used. Cells were extracted only in Triton lysis buffer (as in example 3) and analyzed in Western Blot.
Cells were treated with combined preparations (Nigericin 10 nM, Rotenone 5 nM, Papaverine HCl 1 μm; Salinomycin 10 nM) with or without addition of NAC (N-acetyl cysteine) 1 mM, DOX (Doxycycline) and Minocycline 20 μM, Trolox (soluble form of vitamin E) 100 μM.

[6] = tested on: Sox4; assay type: cell-based; details: non-malignant HEK293t cells, Metformin 72 hours
Experimental: as §2
Experiments were done as in example 3. Cells were densely seeded on 6-well plates. […] For non-cancer HEK293Tcells, non modified RPMI medium supplemented with 10% FCS was used. Cells were extracted only in Triton lysis buffer (as in example 3) and analyzed in Western Blot.

[7] = tested on: Colon cancer DLD1 cells; assay: Cell viability assay, CellTiter-Blue, DLD1; details: Homo sapiens, DLD-1, 72 h, pH 6.5, read-out: fraction (%) of viable cells
Experimental: as §1

[8] = tested on: Colon cancer DLD1 cells; assay: Cell viability assay, CellTiter-Glo, DLD1
Experimental: as §1

[9] = tested on: Breast cancer MDA-MB-231 cells; assay: Cell viability assay, CellTiter-Blue, MDA-MB-231; details: Homo sapiens, MDA-MB-231, 48 h, pH 6.5, read-out: fraction (%) of viable cells
Experimental: as §1

[10] = tested on: Prostate cancer PC3 cells; assay: Cell viability assay, CellTiter-Glo, PC3; details: Homo sapiens, PC-3, 48 h, pH 6.5, read-out: fraction (%) of viable cells
Experimental: as §1

[11] = tested on: Melanoma A375 cells; assay: Cell viability assay, CellTiter-Glo, A375; details: Homo sapiens, A-375, 48 h, pH 6.5, read-out: fraction (%) of viable cells
Experimental: as §1

[12] = tested on: Pancreas cancer Bxpc3 cells; assay: Cell viability assay, CellTiter-Glo, Bxpc3; details: Homo sapiens, BXPC-3, 48 h, pH 6.5, read-out: fraction (%) of viable cells
Experimental: as §1

[13] = tested on: Lung cancer H1975 cells; assay: Cell viability assay, CellTiter-Blue, H1975; details: Homo sapiens, NCI-H1975, 48 h, pH 6.5, read-out: fraction (%) of viable cells
Experimental: as §1

[14] = Homo sapiens, DLD-1, 72 h, pH 6.5, read-out: fraction (%) of viable cells

## Nc1ncnc2c1nc(Sc1ccc(Cl)cc1)n2[C@@H]1O[C@@H]2COP(=O)([O-])O[C@H]2[C@H]1O.[Na+] [8-CPT-cAMP, 8-(4-Chlorophenylthio)-adenosine-3′,5′-cyclic monophosphate]
[1]; 8-CPT-cAMP 100 μM alone, 48 h, pH 6.5
  relative values of cell viability: 86%

## C=C[C@@]1(C)CC(=O)[C@]2(O)[C@@]3(C)[C@@H](O)CCC(C)(C)[C@@H]3[C@H](O)[C@H](OC(C)=O)[C@@]2(C)O1 [Forskolin, forskolin]
[1]; Mus musculus, B16-F10, 48 h, pH 6.5, read-out: relative values of cell viability, Forskolin 10 μM alone, pH 6.5
  viability at 10 µM: 78%

## CO[C@@H]1[C@@H](OC)[C@H](C)[C@@](O)(CC(=O)O)O[C@H]1[C@H](C)[C@H]1O[C@@]2(CC[C@@](C)([C@H]3CC[C@@](C)([C@@H]4O[C@@H]([C@H]5O[C@](C)(O)[C@H](C)C[C@@H]5C)C[C@@H]4O[C@@H]4C[C@H](OC)[C@@H](OC)[C@H](C)O4)O3)O2)C[C@H](O)[C@H]1C [Maduramicin]
[1]; Mus musculus, B16-F10, 48 h, pH 6.5, read-out: fraction (%) of viable cells, Maduramicin 4.00 nM, Phenformin 0.00 μM, pH 6.5
  viability at 0.004 µM: 111%

## CN(C)C(=N)N=C(N)N [Metformin]
[2]
  viability at 94 µM: 84%
  viability at 188 µM: 70%
  viability at 375 µM: 45%
[3]
  wnt signaling (Axin2 mRNA, cytoplasmic b-catenin): wnt signaling inhibitor
[4]
  intracellular pH: causes intracellular acidification
[5]; DLD1 and HCT116 cells
  expression of endogenous Sox4: inhibits expression of endogenous Sox4
[5]; H1703 and H1299 cells, Wnt3a conditioned media 48 hours
  Wnt-inducible Sox4 expression: inhibits Wnt-inducible Sox4
[5]; H1975 cells
  expression of endogenous Sox4: inhibits expression of endogenous Sox4
[6]
  expression of Sox4: has no effect on Sox4
[1]; Mus musculus, B16-F10, 48 h, pH 6.5, read-out: fraction (%) of viable cells, Metformin 750 μM, Monensin 0.00 nM, pH 6.5
  viability at 750 µM: 80%
[1]; Mus musculus, B16-F10, 48 h, pH 6.5, read-out: fraction (%) of viable cells, Metformin 1500 μM, Monensin 0.00 nM, pH 6.5
  viability at 1500 µM: 84%
[1]; Mus musculus, B16-F10, 48 h, pH 6.5, read-out: fraction (%) of viable cells, Metformin 3000 μM, Monensin 0.00 nM, pH 6.5
  viability at 3000 µM: 9%

## CC[C@@]1([C@@H]2O[C@@H]([C@H]3O[C@@](O)(CO)[C@H](C)C[C@@H]3C)C[C@@H]2C)CC[C@H]([C@]2(C)CC[C@]3(C[C@H](O)[C@@H](C)[C@@H]([C@@H](C)[C@@H](OC)[C@H](C)C(=O)O)O3)O2)O1 [Monensin]
[2]
  viability at 0.005 µM: 55%
[7]
  viability at 0.005 µM: 88%
  viability at 0.01 µM: 72%
  viability at 0.02 µM: 55%
[8]; human, 72 h, 5 nM, pH 6.5
  fraction (%) of viable cells: 112%
[1]; Mus musculus, B16-F10, 48 h, pH 6.5, read-out: fraction (%) of viable cells, Monensin 4.00 nM, Metformin 0.00 μM, pH 6.5
  viability at 0.004 µM: 111%
[1]; Mus musculus, B16-F10, 48 h, pH 6.5, read-out: fraction (%) of viable cells, Monensin 4.00 nM, Phenformin 0.00 μM, pH 6.5
  viability at 0.004 µM: 95%

## CO[C@@H]1C[C@@H](C[C@H]2CC[C@H](C)[C@H]([C@@H](C)C(=O)O)O2)O[C@]2(O[C@](C)([C@H]3CC[C@@](C)([C@@H]4O[C@@H]([C@H]5O[C@@](O)(CO)[C@H](C)C[C@@H]5C)C[C@@H]4C)O3)C[C@H]2C)[C@@H]1C [Nigericin]
[9]
  viability at 0.0025 µM: 98%
  viability at 0.005 µM: 101%
[10]
  viability at 0.005 µM: 31%
  viability at 0.01 µM: 0%
[11]
  viability at 0.00125 µM: 58%
  viability at 0.0025 µM: 7%
[12]
  viability at 0.005 µM: 39%
  viability at 0.01 µM: 35%
[8]; [14]
  viability at 0.005 µM: 107%
  viability at 0.01 µM: 103%
[13]
  viability at 0.0025 µM: 93%
  viability at 0.005 µM: 95%

## [H]/N=C(/N)N/C(=N/[H])NCCc1ccccc1 [Phenformin]
[1]; Mus musculus, B16-F10, 48 h, pH 6.5, read-out: fraction (%) of viable cells, Phenformin 4 μM, Maduramicin 0.00 nM, pH 6.5 (Table 12)
  viability at 4 µM: 82%
[1]; Mus musculus, B16-F10, 48 h, pH 6.5, read-out: fraction (%) of viable cells, Phenformin 4 μM, Monensin 0.00 nM, pH 6.5 (Table 11)
  viability at 4 µM: 82%
[1]; Mus musculus, B16-F10, 48 h, pH 6.5, read-out: fraction (%) of viable cells, Phenformin 8 μM, Maduramicin 0.00 nM, pH 6.5 (Table 12)
  viability at 8 µM: 76%
[1]; Mus musculus, B16-F10, 48 h, pH 6.5, read-out: fraction (%) of viable cells, Phenformin 8 μM, Monensin 0.00 nM, pH 6.5 (Table 11)
  viability at 8 µM: 76%
[1]; Mus musculus, B16-F10, 48 h, pH 6.5, read-out: fraction (%) of viable cells, Phenformin 16 μM, Maduramicin 0.00 nM, pH 6.5 (Table 12)
  viability at 16 µM: 56%
[1]; Mus musculus, B16-F10, 48 h, pH 6.5, read-out: fraction (%) of viable cells, Phenformin 16 μM, Monensin 0.00 nM, pH 6.5 (Table 11)
  viability at 16 µM: 56%

## C=C(C)[C@H]1Cc2c(ccc3c2O[C@@H]2COc4cc(OC)c(OC)cc4[C@@H]2C3=O)O1 [Rotenone]
[7]
  viability at 0.005 µM: 87%
[9]
  viability at 0.0025 µM: 98%
  viability at 0.005 µM: 102%
  viability at 0.01 µM: 99%
  viability at 0.02 µM: 81%
[10]
  viability at 0.005 µM: 45%
  viability at 0.01 µM: 4%
  viability at 0.02 µM: 1%
[11]
  viability at 0.00125 µM: 96%
  viability at 0.0025 µM: 91%
  viability at 0.005 µM: 75%
[12]
  viability at 0.005 µM: 104%
  viability at 0.01 µM: 89%
  viability at 0.02 µM: 59%
[8]; [14]
  viability at 0.005 µM: 96%
  viability at 0.01 µM: 89%
  viability at 0.02 µM: 67%
[13]
  viability at 0.0025 µM: 103%
  viability at 0.005 µM: 104%
  viability at 0.01 µM: 110%
  viability at 0.02 µM: 84%
